# Test results from patent US7622441B2, “Sustained release pharmaceutical compounds to prevent abuse of controlled substances” (Shire LLC, priority 2002, dated 2009).
# Where a SMILES comes first, the peptide text is derived from it. Where no end group is shown, it is not given here. [ ]: non-standard residue; d: D form. The star is where a group is joined. ξ: configuration not given here. X2 = COc1ccc2c3c1OC1C(O*)=CCC4C(C2)N(C)CCC314; ξL = CC(C)CC(N)C(=O)O
# What was measured:
# [1] = Stability of narcotic conjugates in water (narcotic release, abuse resistance tests); format: physicochemical; conditions: for H2O (1 h, 90 C.) / H2O (24 h, RT): numbers based upon narcotic release; for % Release of Narcotic in Water: neutral pH
# From the text: It is also possible to further stabilize any unstable conjugates by tethering to a larger peptide. […] The conjugates are also stable at a wide range of pH's.
# male Sprague-Dawley rats = assay: Analgesia by paw lick latency (PLL), hot plate nociceptive model, subcutaneous injection; format: in vivo; set-up: Paw Lick Latency: unit not given beside the values
# [2] = intranasal, serum, buffer PBS
# [3] = Table 12, 15 min., equivalent dose
# [4] = Table 12, 30 min, equivalent dose
# [5] = Table 12, Basal (0 h), before treatment
compound,measurement,setting,value
COc1ccc2c3c1OC1C(OC(=O)C(C)(C)N)=CCC4C(C2)N(C)CCC314 (stereo not shown) [Aib-HC],"H2O (1 h, 90 C.)",[1],45
same,"H2O (24 h, RT)",[1],0
"COc1ccc2c3c1OC1C(OC(=O)C(CC(C)C)NC(=O)CNC(=O)CNC(=O)CNC(=O)CN)=CCC4C(C2)N(C)CCC314 (stereo not drawn) [GGGGL-HC, Gly-Gly-Gly-Gly-Leu-Hydrocodone] (H-GGGG[ξL]-X2)",Paw Lick Latency,"male Sprague-Dawley rats; Table 12, 60, 2× the equivalent dose",5
same,Paw Lick Latency,"male Sprague-Dawley rats; Table 12, 60, equivalent dose",3.6
same,Paw Lick Latency,"male Sprague-Dawley rats; Table 12, 15 min., 2× the equivalent dose",3
same,Paw Lick Latency,male Sprague-Dawley rats; [3],6.8
same,Paw Lick Latency,"male Sprague-Dawley rats; Table 12, 30 min, 2× the equivalent dose",5.6
same,Paw Lick Latency,male Sprague-Dawley rats; [4],5.6
same,Paw Lick Latency,male Sprague-Dawley rats; [5],7.5
same,Paw Lick Latency,"male Sprague-Dawley rats; Table 12, Basal (0 h), group given 2× the equivalent dose",2.2
"COc1ccc2c3c1OC1C(OC(=O)C(N)CCC(=O)O)=CCC4C(C2)N(C)CCC314 (stereo not shown) [Glu-HC, 6-O-Glu-Hydrocodone]",% Release of Narcotic in Water,[1]; 0 Hours,0%
same,% Release of Narcotic in Water,[1]; 1 Hour,4%
same,% Release of Narcotic in Water,[1]; 6 Hours,19%
same,% Release of Narcotic in Water,[1]; 24 Hours,42%
same,"H2O (1 h, 90 C.)",[1],100
same,"H2O (24 h, RT)",[1],79
same,Comments (curve),[2],Flat curve
same,Peak Time,[2]; multiple of hydrocodone's peak time,6X
same,% AUC,[2]; vs. hydrocodone,60%
same,% Cmax,[2]; vs. hydrocodone,55%
"COc1ccc2c3c1OC1C(OC(=O)CN)=CCC4C(C2)N(C)CCC314 (stereo not shown) [Gly-HC, 6-O-Gly-Hydrocodone]",% Release of Narcotic in Water,[1]; 0 Hours,6%
same,% Release of Narcotic in Water,[1]; 1 Hour,8%
same,% Release of Narcotic in Water,[1]; 6 Hours,11%
same,% Release of Narcotic in Water,[1]; 24 Hours,32%
same,"H2O (1 h, 90 C.)",[1],63
same,"H2O (24 h, RT)",[1],26
CCC(C)C(N)C(=O)OC1=CCC2C3Cc4ccc(OC)c5c4C2(CCN3C)C1O5 (stereo not shown) [Ile-HC],"H2O (1 h, 90 C.)",[1],46
same,"H2O (24 h, RT)",[1],16
COc1ccc2c3c1OC1C(OC(=O)C(CC(C)C)NC(=O)C(CC(C)C)NC(=O)C(N)CC(C)C)=CCC4C(C2)N(C)CCC314 (stereo not shown) [LLL-HC],Paw Lick Latency,"male Sprague-Dawley rats; Table 12, 60, equivalent dose",3.2
same,Paw Lick Latency,male Sprague-Dawley rats; [3],5.7
same,Paw Lick Latency,male Sprague-Dawley rats; [4],3.9
same,Paw Lick Latency,male Sprague-Dawley rats; [5],4.1
"COc1ccc2c3c1O[C@H]1C(OC(=O)[C@@H](N)CC(C)C)=CC[C@H]4[C@@H](C2)N(C)CC[C@]314 [Leu-HC, Leu-Hydrocodone]","H2O (1 h, 90 C.)",[1],49
same,"H2O (24 h, RT)",[1],10
COc1ccc2c3c1OC1C(OC(=O)C(N)Cc4ccccc4)=CCC4C(C2)N(C)CCC314 (stereo not shown) [Phe-HC],"H2O (1 h, 90 C.)",[1],54
"COc1ccc2c3c1O[C@H]1C(OC(=O)[C@@H]4CCCN4)=CC[C@H]4[C@@H](C2)N(C)CC[C@]314 [Pro-HC, 6-O-Pro-Hydrocodone]",% Release of Narcotic in Water,[1]; 0 Hours,4%
same,% Release of Narcotic in Water,[1]; 1 Hour,11%
same,% Release of Narcotic in Water,[1]; 6 Hours,25%
same,% Release of Narcotic in Water,[1]; 24 Hours,71%
same,"H2O (1 h, 90 C.)",[1],97
same,"H2O (24 h, RT)",[1],71
COc1ccc2c3c1OC1C(OC(=O)C(N)CO)=CCC4C(C2)N(C)CCC314 (stereo not shown) [Ser-HC],"H2O (1 h, 90 C.)",[1],98
same,"H2O (24 h, RT)",[1],45
Ala-Pro-Hydrocodone [Ala-Pro-HC],"H2O (1 h, 90 C.)",[1],100
same,"H2O (24 h, RT)",[1],100
Glu5-HC: pentapeptide conjugate of hydrocodone (SEQ ID NO: 2) (EEEEE; also: hydrocodone conjugate),"H2O (1 h, 90 C.)",[1],53
